Test results as given in patent publication US20150004637A1, “SYSTEMS AND METHODS FOR IMAGING AT HIGH SPATIAL AND/OR TEMPORAL PRECISION” (President and Fellows of Harvard College, priority 2011, published 2015).
Where two headings read alike, the source gives them in different places.

B1: GPR: Green-absorbing proteorhodopsin, light-driven proton pump found in marine bacteria (protein)
chain: TMGKLLLILGSVIALPTFAAGGGDLDASDYTGVSFWLVTAALLASTVFFFVERDRVSAKWKTSLTVSGLVTGIAFWHYMYMRGVWIETGDSPTVFRYIDWLLTVPLLICEFYLILAAATNVAAGLFKKLLVGSLVMLVFGYMGEAGIMNAWPAFIIGCLAWVYMIYELYAGEGKSACNTASPSVQSAYNTMMAIIVFGWAIYPVGYFTGYLMGDGGSALNLNLIYNLADFVNKILFGLIIWNVAVKESSNA
modifications: /note=“Description of Unknown Green-absorbing proteorhodopsin polypeptide from an uncultured marine bacterium”

What was measured:
[1] = system: membrane potential; conditions: literature values, cited from earlier work; for Approx ΔF/F per 100 mV: ΔR/R where comment says ratiometric
[2] = Schiff base pKa and fluorescence of GPR / PROPS; assay type: physicochemical

Molecule	Approx response time [1] [ms]	Approx ΔF/F per 100 mV [1] [%]	pKa of the Schiff Base [2]	pKa of the Schiff Base ([2]; listed as green proteorhodopsin)
CCCCN(CCCC)c1ccc(/C=C/C=C/C=C/c2cc[n+](CCCCS(=O)(=O)[O-])cc2)cc1 [RH237]	<1	11		
CCCCCN(CCCCC)c1ccc(/C=C/C=C/c2cc[n+](CCCCS(=O)(=O)[O-])cc2)cc1 [RH421]	<1	21		
CCCCN(CCCC)c1ccc2cc(/C=C/c3cc[n+](CCCS(=O)(=O)[O-])cc3)ccc2c1 [di-4-ANEPPS]	<1	8		
CCCCCCCCN(CCCCCCCC)c1ccc2cc(/C=C/c3cc[n+](CCCS(=O)(=O)[O-])cc3)ccc2c1 [di-8-ANEPPS]	<1	10		
Flash	2.8 to 85	5.1		
B1			~12	> 12
